Test results from article PMC11946580, “In Vitro Enzymatic and Computational Assessments of Pyrazole–Isatin and Pyrazole–Indole Conjugates as Anti-Diabetic, Anti-Arthritic, and Anti-Inflammatory Agents” (Pharmaceutics, 2025).

Legend:
COX-2 = biological target: T1, COX-2 (Homo sapiens, UniProt P35354); assay: COX-2 inhibition assay (Cayman kit); type: biochemical; conditions: mean ± SE, three replicates
T1 construct: purchased Cayman 560131
T1 sequence (P35354 18-604): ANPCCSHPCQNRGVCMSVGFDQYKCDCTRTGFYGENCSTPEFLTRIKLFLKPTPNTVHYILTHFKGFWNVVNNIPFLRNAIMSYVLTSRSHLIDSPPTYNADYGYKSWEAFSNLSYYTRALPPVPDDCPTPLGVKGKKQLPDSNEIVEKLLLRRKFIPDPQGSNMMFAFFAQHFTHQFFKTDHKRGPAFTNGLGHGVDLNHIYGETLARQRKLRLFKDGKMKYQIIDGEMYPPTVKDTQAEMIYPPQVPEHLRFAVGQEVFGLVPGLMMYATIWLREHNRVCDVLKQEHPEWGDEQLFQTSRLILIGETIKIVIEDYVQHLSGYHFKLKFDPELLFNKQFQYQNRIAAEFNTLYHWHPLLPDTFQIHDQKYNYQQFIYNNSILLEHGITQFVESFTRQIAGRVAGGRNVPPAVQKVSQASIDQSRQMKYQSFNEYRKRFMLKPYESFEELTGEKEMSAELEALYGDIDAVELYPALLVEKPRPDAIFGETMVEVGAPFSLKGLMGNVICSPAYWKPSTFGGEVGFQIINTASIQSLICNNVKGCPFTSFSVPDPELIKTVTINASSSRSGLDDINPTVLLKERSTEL

5-LOX = biological target: T2, 5-LOX (Homo sapiens, UniProt P09917); assay: 5-Lipoxygenase inhibition assay (kit); conditions: for 5-LOX Inhibition (%): mean ± SE, three replicates; for 5-LOX Inhibition (%): test concentration or dose not given here
T2 sequence (P09917 1-674): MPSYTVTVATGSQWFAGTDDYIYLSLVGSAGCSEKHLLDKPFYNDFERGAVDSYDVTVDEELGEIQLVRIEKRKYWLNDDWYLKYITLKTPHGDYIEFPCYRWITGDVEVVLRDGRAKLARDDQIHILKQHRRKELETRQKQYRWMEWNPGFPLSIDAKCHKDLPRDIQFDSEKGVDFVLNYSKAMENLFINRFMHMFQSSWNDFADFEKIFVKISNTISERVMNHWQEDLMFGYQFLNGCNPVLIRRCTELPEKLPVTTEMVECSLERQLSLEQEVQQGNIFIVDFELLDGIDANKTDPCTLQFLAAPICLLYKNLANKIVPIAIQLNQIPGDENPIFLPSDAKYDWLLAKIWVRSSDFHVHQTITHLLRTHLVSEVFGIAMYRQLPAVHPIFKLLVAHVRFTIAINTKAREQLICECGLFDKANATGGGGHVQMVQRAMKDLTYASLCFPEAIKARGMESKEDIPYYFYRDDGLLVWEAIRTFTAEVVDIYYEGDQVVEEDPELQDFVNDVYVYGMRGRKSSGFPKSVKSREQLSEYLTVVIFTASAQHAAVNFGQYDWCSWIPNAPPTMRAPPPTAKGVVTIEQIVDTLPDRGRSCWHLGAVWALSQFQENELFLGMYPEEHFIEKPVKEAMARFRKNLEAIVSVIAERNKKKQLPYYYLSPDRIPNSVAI

COX-1 = biological target: T3, COX-1 (Ovis aries, UniProt P05979); assay: COX-1 inhibition assay (Cayman kit); conditions: for COX-1 Inhibition (%): mean ± SE, three replicates; for COX-1 Inhibition (%): test concentration or dose not given here
T3 sequence (P05979 25-600): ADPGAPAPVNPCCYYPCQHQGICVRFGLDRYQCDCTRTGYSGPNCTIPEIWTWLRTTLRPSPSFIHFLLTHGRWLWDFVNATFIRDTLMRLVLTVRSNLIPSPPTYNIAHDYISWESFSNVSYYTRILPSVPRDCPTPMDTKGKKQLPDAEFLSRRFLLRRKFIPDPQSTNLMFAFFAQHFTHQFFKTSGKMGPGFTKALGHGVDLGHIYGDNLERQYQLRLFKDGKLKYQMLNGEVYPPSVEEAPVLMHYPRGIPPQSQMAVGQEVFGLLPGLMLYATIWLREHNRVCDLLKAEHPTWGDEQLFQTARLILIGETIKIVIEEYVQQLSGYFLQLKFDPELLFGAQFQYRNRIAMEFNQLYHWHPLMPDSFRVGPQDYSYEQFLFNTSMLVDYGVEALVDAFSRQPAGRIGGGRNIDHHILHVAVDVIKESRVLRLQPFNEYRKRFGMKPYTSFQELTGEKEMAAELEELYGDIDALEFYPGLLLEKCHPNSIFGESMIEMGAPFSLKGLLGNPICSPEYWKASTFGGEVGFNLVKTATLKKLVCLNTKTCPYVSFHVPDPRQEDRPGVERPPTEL

[1] = biological target: bovine serum albumin (BSA) (Bos taurus, UniProt P02769); conditions: mean ± SE, three replicates; note: test concentration or dose not given here
Sequence of bovine serum albumin (BSA) (P02769 25-607): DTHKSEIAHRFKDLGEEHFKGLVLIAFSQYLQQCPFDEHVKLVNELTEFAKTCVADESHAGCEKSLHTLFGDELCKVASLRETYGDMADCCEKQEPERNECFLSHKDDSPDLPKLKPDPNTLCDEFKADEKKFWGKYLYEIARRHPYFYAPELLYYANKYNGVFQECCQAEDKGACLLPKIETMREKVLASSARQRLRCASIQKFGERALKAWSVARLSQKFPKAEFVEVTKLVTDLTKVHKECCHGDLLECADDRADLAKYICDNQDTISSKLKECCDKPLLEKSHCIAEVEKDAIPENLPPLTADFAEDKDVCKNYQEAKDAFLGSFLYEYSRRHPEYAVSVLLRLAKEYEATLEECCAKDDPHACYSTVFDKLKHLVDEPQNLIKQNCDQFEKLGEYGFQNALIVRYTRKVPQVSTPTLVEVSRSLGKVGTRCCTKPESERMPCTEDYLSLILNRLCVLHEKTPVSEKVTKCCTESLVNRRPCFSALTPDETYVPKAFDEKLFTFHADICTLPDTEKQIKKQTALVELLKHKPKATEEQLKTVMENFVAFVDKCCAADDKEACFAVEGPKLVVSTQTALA

[2] = biological target: cyclooxygenase-2 (COX-2) enzyme; design: method as in PMID 37985602; conditions: cited from earlier work
[3] = biological target: cyclooxygenase-1 (COX-1) enzyme; design: method as in PMID 37985602; conditions: cited from earlier work
α-glucosidase enzyme = biological target: α-glucosidase enzyme; design: method as in PMID 38225280; conditions: cited from earlier work
[4] = design: method as in doi:10.1007/s11164-024-05318-1; conditions: read-out: antioxidant activities IC50; cited from earlier work
[5] = tested on: pancreatic cancer (PaCa-2) cells; design: method as in PMID 39193301; conditions: cited from earlier work
α-amylase enzyme = biological target: α-amylase enzyme; design: method as in PMID 34600331; conditions: cited from earlier work

SMILES: CCN1C(=O)/C(=N\c2[nH]nc(Nc3ccccc3)c2C(=O)Nc2ccc(C)cc2)c2ccccc21 [12f]
- COX-2 Inhibition (%) (COX-2): 21.16 ± 0.04%
- IC50 (COX-2): 39.4 µM
- IC50 (5-LOX): 44 µM
- 5-LOX Inhibition (%) (5-LOX): 11.01 ± 0.04%
- IC50 (COX-1): 43.2 µM
- COX-1 Inhibition (%) (COX-1): 18.91 ± 0.04%
- Protein Denaturation Inhibition (%) [1]: 15.36 ± 0.03%

SMILES: Cc1ccc(NC(=O)c2c(Nc3ccccc3)n[nH]c2N=Cc2c[nH]c3ccccc23)cc1 [14b]
- COX-2 Inhibition (%) (COX-2): 72.08 ± 0.26%
- IC50 (COX-2): 12.4 µM
- IC50 (5-LOX): 17.3 µM
- 5-LOX Inhibition (%) (5-LOX): 61.93 ± 0.26%
- IC50 (COX-1): 12.5 µM
- COX-1 Inhibition (%) (COX-1): 69.83 ± 0.26%
- Protein Denaturation Inhibition (%) [1]: 49.30 ± 0.17%

SMILES: CCN1C(=O)C(=Nc2[nH]nc(Nc3ccccc3)c2C(=O)Nc2ccccc2)c2ccccc21 [12e]
- COX-2 Inhibition (%) (COX-2): 19.87 ± 0.04%
- IC50 (COX-2): 43.3 µM
- IC50 (5-LOX): 48 µM
- 5-LOX Inhibition (%) (5-LOX): 9.72 ± 0.04%
- IC50 (COX-1): 47.8 µM
- COX-1 Inhibition (%) (COX-1): 17.62 ± 0.04%
- Protein Denaturation Inhibition (%) [1]: 14.50 ± 0.03%

SMILES: CCN1C(=O)C(=Nc2[nH]nc(Nc3ccc(OC)cc3)c2C(=O)Nc2ccccc2)c2ccccc21 [12g]
- COX-2 Inhibition (%) (COX-2): 23.40 ± 0.04%
- IC50 (COX-2): 34.4 µM
- IC50 (5-LOX): 38.9 µM
- 5-LOX Inhibition (%) (5-LOX): 13.25 ± 0.04%
- IC50 (COX-1): 37.4 µM
- COX-1 Inhibition (%) (COX-1): 21.15 ± 0.04%
- Protein Denaturation Inhibition (%) [1]: 16.85 ± 0.03%

SMILES: COc1ccc(Nc2n[nH]c(N=Cc3c[nH]c4ccccc34)c2C(=O)Nc2ccccc2)cc1 [14c]
- COX-2 Inhibition (%) (COX-2): 37.32 ± 0.26%
- IC50 (COX-2): 23 µM
- IC50 (5-LOX): 27.8 µM
- 5-LOX Inhibition (%) (5-LOX): 27.17 ± 0.26%
- IC50 (COX-1): 24 µM
- COX-1 Inhibition (%) (COX-1): 35.07 ± 0.26%
- Protein Denaturation Inhibition (%) [1]: 26.13 ± 0.17%

SMILES: COc1ccc(Nc2n[nH]c(N=Cc3c[nH]c4ccccc34)c2C(=O)Nc2ccc(C)cc2)cc1 [14d]
- COX-2 Inhibition (%) (COX-2): 37.88 ± 0.26%
- IC50 (COX-2): 22 µM
- IC50 (5-LOX): 26.7 µM
- 5-LOX Inhibition (%) (5-LOX): 27.73 ± 0.26%
- IC50 (COX-1): 22.9 µM
- COX-1 Inhibition (%) (COX-1): 35.63 ± 0.26%
- Protein Denaturation Inhibition (%) [1]: 26.50 ± 0.17%

SMILES: COc1ccc(Nc2n[nH]c(N=C3C(=O)N(C)c4ccccc43)c2C(=O)Nc2ccc(C)cc2)cc1 [12d]
- COX-2 Inhibition (%) (COX-2): 23.05 ± 0.04%
- IC50 (COX-2): 35 µM
- IC50 (5-LOX): 39.4 µM
- 5-LOX Inhibition (%) (5-LOX): 12.90 ± 0.04%
- IC50 (COX-1): 38 µM
- COX-1 Inhibition (%) (COX-1): 20.80 ± 0.04%
- Protein Denaturation Inhibition (%) [1]: 16.62 ± 0.03%

SMILES: O=C(Nc1cc(-c2ccccc2)nn1-c1ccccc1)c1ccc(/C=C/C(=O)c2ccc(Cl)s2)cc1 [compound 2]
- IC50 [2]: 1.76 µM
- IC50 [3]: 10.2 µM

SMILES: CCN1C(=O)C(=Nc2[nH]nc(Nc3ccc(OC)cc3)c2C(=O)Nc2ccc(C)cc2)c2ccccc21 [12h]
- COX-2 Inhibition (%) (COX-2): 22.81 ± 0.04%
- IC50 (COX-2): 34.3 µM
- IC50 (5-LOX): 38.7 µM
- 5-LOX Inhibition (%) (5-LOX): 12.66 ± 0.04%
- IC50 (COX-1): 37.3 µM
- COX-1 Inhibition (%) (COX-1): 20.56 ± 0.04%
- Protein Denaturation Inhibition (%) [1]: 16.45 ± 0.03%

SMILES: Cc1ccc(NC(=O)c2c(Nc3ccccc3)n[nH]c2N=C2C(=O)N(C)c3ccccc32)cc1 [12b]
- COX-2 Inhibition (%) (COX-2): 21.00 ± 0.04%
- IC50 (COX-2): 40.9 µM
- IC50 (5-LOX): 45.7 µM
- 5-LOX Inhibition (%) (5-LOX): 10.85 ± 0.04%
- IC50 (COX-1): 44.9 µM
- COX-1 Inhibition (%) (COX-1): 18.75 ± 0.04%
- Protein Denaturation Inhibition (%) [1]: 15.25 ± 0.03%

SMILES: O=C(Nc1ccccc1)c1c(Nc2ccccc2)n[nH]c1N=Cc1c[nH]c2ccccc12 [14a]
- COX-2 Inhibition (%) (COX-2): 55.04 ± 0.26%
- IC50 (COX-2): 16.7 µM
- IC50 (5-LOX): 21.9 µM
- 5-LOX Inhibition (%) (5-LOX): 44.89 ± 0.26%
- IC50 (COX-1): 17.1 µM
- COX-1 Inhibition (%) (COX-1): 52.79 ± 0.26%
- Protein Denaturation Inhibition (%) [1]: 37.94 ± 0.17%

SMILES: Cc1cc(-c2nnc(S)n2N)n[nH]1 [compound 1]
- IC50 (α-glucosidase enzyme): 95.85 ± 0.92 µM

SMILES: COc1cc(C=NNC(=S)NN=C2C(=O)Nc3ccc(I)cc32)ccc1O [compound 5]
- IC50 [4]: 9.76 ± 0.03 µM

SMILES: CN1C(=O)C(=Nc2[nH]nc(Nc3ccccc3)c2C(=O)Nc2ccccc2)c2ccccc21 [12a]
- COX-2 Inhibition (%) (COX-2): 19.72 ± 0.04%
- IC50 (COX-2): 45 µM
- IC50 (5-LOX): 49.9 µM
- 5-LOX Inhibition (%) (5-LOX): 9.57 ± 0.04%
- IC50 (COX-1): 49.8 µM
- COX-1 Inhibition (%) (COX-1): 17.47 ± 0.04%
- Protein Denaturation Inhibition (%) [1]: 14.40 ± 0.03%

SMILES: CCc1nn(-c2ccc([N+](=O)[O-])cc2)c(C)c1C(=O)/C=C/c1ccccc1 [compound 3]
- PaCa-2 cells IC50 [5]: 13.0 µg/mL
- cell cycle effect in treated PaCa-2 cells [5]: induces cell cycle arrest at the S and G2/M phases

SMILES: COc1ccc(Nc2n[nH]c(N=C3C(=O)N(C)c4ccccc43)c2C(=O)Nc2ccccc2)cc1 [12c]
- COX-2 Inhibition (%) (COX-2): 23.23 ± 0.04%
- IC50 (COX-2): 35.8 µM
- IC50 (5-LOX): 40.4 µM
- 5-LOX Inhibition (%) (5-LOX): 13.08 ± 0.04%
- IC50 (COX-1): 38.8 µM
- COX-1 Inhibition (%) (COX-1): 20.98 ± 0.04%
- Protein Denaturation Inhibition (%) [1]: 16.73 ± 0.03%

SMILES: CCC(=O)CN1C(=O)/C(=N/NC(=O)c2ccc(Br)cc2)c2ccccc21 [compound 4]
- α-amylase IC50 (α-amylase enzyme): 19.6 µg/mL

SMILES: CC(c1cc2ccccc2s1)N(O)C(N)=O (centres unmarked) [Zileuton, reference compound]
- 5-LOX Inhibition (%) (5-LOX): 72.61 ± 0.07%
